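Results reflect a 48-hour exposure of cells in 96-well plates to compound at five concentrations. At the GI50, growth is halved.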 The source made the active and inactive calls. Rule as the data show it: active = GI50 up to about 1.1 µM and inactive = higher.
Columns and labels:
Test in all cases: growth of human tumour cells (NCI), 48 h
COLO 205 = tested on: COLO 205
MOLT-4 = tested on: MOLT-4
RPMI-8226 = tested on: RPMI-8226
OVCAR-4 = tested on: OVCAR-4
UO-31 = tested on: UO-31
NCI/ADR-RES = tested on: NCI/ADR-RES
SK-MEL-5 = tested on: SK-MEL-5
RXF 393 = tested on: RXF 393
OVCAR-5 = tested on: OVCAR-5
K562 = tested on: K562
NCI-H460 = tested on: NCI-H460
IGROV-1 = tested on: IGROV-1
LOX IMVI = tested on: LOX IMVI
SN12C = tested on: SN12C
HT-29 = tested on: HT-29
PC-3 = tested on: PC-3
T47D = tested on: T47D
SW-620 = tested on: SW-620
HCC 2998 = tested on: HCC 2998
SNB-19 = tested on: SNB-19

Structure (SMILES)	GI50 (COLO 205)	GI50 (MOLT-4)	GI50 (RPMI-8226)	GI50 (OVCAR-4)	GI50 (UO-31)	GI50 (NCI/ADR-RES)	GI50 (SK-MEL-5)	GI50 (RXF 393)	GI50 (OVCAR-5)	GI50 (K562)	GI50 (NCI-H460)	GI50 (IGROV-1)	GI50 (LOX IMVI)	GI50 (SN12C)	GI50 (HT-29)	GI50 (PC-3)	GI50 (T47D)	GI50 (SW-620)	GI50 (HCC 2998)	GI50 (SNB-19)
CC(=O)c1c(SCCN2CCOCC2)n(-c2ccccc2)c(=S)n(-c2ccccc2)c1=O	21.5 µM (inactive)	16 µM (inactive)	8.38 µM (inactive)	> 46.2 µM (inactive)	14.1 µM (inactive)	> 57 µM (inactive)	17.3 µM (inactive)	11.9 µM (inactive)	> 100 µM (inactive)	14.1 µM (inactive)	24.4 µM (inactive)	16.9 µM (inactive)	8.39 µM (inactive)	16.9 µM (inactive)	23.8 µM (inactive)	17.3 µM (inactive)	17.6 µM (inactive)	20.7 µM (inactive)	14.3 µM (inactive)	> 40.9 µM (inactive)
CC(C)c1ccc(/C=C2/C=C(c3ccc4ccccc4c3)OC2=O)cc1	27.9 µM (inactive)	21.2 µM (inactive)	31.3 µM (inactive)	> 100 µM (inactive)	> 76.2 µM (inactive)	39.5 µM (inactive)	15.2 µM (inactive)	> 81.1 µM (inactive)	> 100 µM (inactive)	25.2 µM (inactive)	> 78.2 µM (inactive)	> 85.9 µM (inactive)	40.2 µM (inactive)	57.1 µM (inactive)	> 95.3 µM (inactive)	49 µM (inactive)	43 µM (inactive)	> 86.5 µM (inactive)	> 100 µM (inactive)	> 100 µM (inactive)
C/C(=N/NC(=S)N1CCCCCC1)c1cccc(/C(C)=N\NC(=S)N2CCCCCC2)n1	1.47 µM (inactive)	2.43 µM (inactive)	1.91 µM (inactive)	1.01 µM (active)	1.37 µM (inactive)	1.69 µM (inactive)	1.42 µM (inactive)	1.6 µM (inactive)	2.24 µM (inactive)	2.45 µM (inactive)	2.55 µM (inactive)	1.49 µM (inactive)	1.72 µM (inactive)	2.09 µM (inactive)	2.16 µM (inactive)	1.64 µM (inactive)	2.31 µM (inactive)	1.11 µM (active)	2.27 µM (inactive)	3.27 µM (inactive)
COc1ccc(C=O)cc1OS(=O)(=O)C(F)(F)C(F)(F)C(F)(F)C(F)(F)F	24.5 µM (inactive)	3.23 µM (inactive)	21.8 µM (inactive)	43.8 µM (inactive)	22.8 µM (inactive)	21 µM (inactive)	15.5 µM (inactive)	21.3 µM (inactive)	50.7 µM (inactive)	3.52 µM (inactive)	27.2 µM (inactive)	24.9 µM (inactive)	15.2 µM (inactive)	42.1 µM (inactive)	29.9 µM (inactive)	32.3 µM (inactive)	41.7 µM (inactive)	24.9 µM (inactive)		42.1 µM (inactive)
CSc1nnc(SC)nn1	18.7 µM (inactive)	0.438 µM (active)	13.3 µM (inactive)	18.5 µM (inactive)	15.5 µM (inactive)	16.8 µM (inactive)	15.8 µM (inactive)	16.7 µM (inactive)	18.1 µM (inactive)	8.04 µM (inactive)	18.2 µM (inactive)	16.3 µM (inactive)	19.6 µM (inactive)	21.1 µM (inactive)	18.9 µM (inactive)	18.5 µM (inactive)	2.76 µM (inactive)	17.2 µM (inactive)		20.7 µM (inactive)
Cc1ccc2c(c1)CC1(Cc3cccc(C)c3C1=O)C2=O (centres undefined)	85.3 µM (inactive)	42.6 µM (inactive)	> 100 µM (inactive)	55.8 µM (inactive)	20.9 µM (inactive)	> 100 µM (inactive)	32.3 µM (inactive)	> 100 µM (inactive)	37.3 µM (inactive)	39.4 µM (inactive)	69.7 µM (inactive)	> 100 µM (inactive)	> 10 µM (inactive)	> 100 µM (inactive)	51.3 µM (inactive)	> 100 µM (inactive)	> 10 µM (inactive)	> 100 µM (inactive)	> 100 µM (inactive)	
CC1(CF)SCc2nc3ccccc3n21 (centres undefined)	> 100 µM (inactive)		> 100 µM (inactive)		81.1 µM (inactive)	> 100 µM (inactive)	> 100 µM (inactive)	> 100 µM (inactive)	> 100 µM (inactive)		> 100 µM (inactive)	> 100 µM (inactive)	> 100 µM (inactive)	> 100 µM (inactive)	> 100 µM (inactive)	> 100 µM (inactive)	> 100 µM (inactive)	> 100 µM (inactive)	> 100 µM (inactive)	> 100 µM (inactive)
